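Five compound concentrations were applied to cells in 96-well plates for 48 hours; endpoints were derived by simple linear interpolation of the resulting dose-response curve. The concentration for 50% growth inhibition is given as GI50. TGI is the concentration that stops growth completely.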
Assays:
Experiment in all cases: NCI anticancer screen, dose series, 48 h
[1] = tested on: EKVX NSCLC
[2] = tested on: HT29 colon
[3] = tested on: MDA-MB-435
[4] = tested on: COLO 205 colon
[5] = tested on: SF-539 CNS
[6] = tested on: SK-MEL-5 melanoma
[7] = tested on: NCI-H23 lung
[8] = tested on: NCI/ADR-RES ovarian
[9] = tested on: SR leukemia
[10] = tested on: IGROV1 ovarian
[11] = tested on: PC-3 prostate
[12] = tested on: SF-268 CNS
[13] = tested on: KM12 colon
[14] = tested on: SNB-19 CNS
[15] = tested on: K-562 leukemia
[16] = tested on: CCRF-CEM leukemia
[17] = tested on: TK-10 renal
[18] = tested on: CAKI-1 renal
[19] = tested on: SN12C renal
[20] = tested on: HCT-15 colon
[21] = tested on: BT-549 breast
[22] = tested on: DU-145 prostate
[23] = tested on: SNB-75 CNS
[24] = tested on: T-47D breast
[25] = tested on: 786-0 renal
[26] = tested on: OVCAR-8 ovarian
[27] = tested on: UACC-257 melanoma
[28] = tested on: SK-MEL-28 melanoma
[29] = tested on: SK-MEL-2 melanoma
[30] = tested on: HCC-2998 colon
[31] = tested on: LOX IMVI melanoma
[32] = tested on: MDA-MB-231 breast
[33] = tested on: RXF 393 renal
[34] = tested on: HOP-92 NSCLC
[35] = tested on: ACHN renal
[36] = tested on: HL-60(TB) leukemia
[37] = tested on: UACC-62 melanoma
[38] = tested on: SK-OV-3 ovarian
[39] = tested on: UO-31 renal
[40] = tested on: HCT-116 colon
[41] = tested on: OVCAR-4 ovarian
[42] = tested on: OVCAR-5 ovarian
[43] = tested on: A549 NSCLC
[44] = tested on: MCF7 breast
[45] = tested on: NCI-H460 lung
[46] = tested on: OVCAR-3 ovarian
[47] = tested on: RPMI-8226 leukemia
[48] = tested on: SF-295 CNS
[49] = tested on: HS 578T breast
[50] = tested on: SW-620 colon
[51] = tested on: NCI-H226 lung
[52] = tested on: MOLT-4 leukemia
[53] = tested on: A498 renal
[54] = tested on: M14 melanoma
[55] = tested on: NCI-H522 lung
[56] = tested on: HOP-62 NSCLC
[57] = tested on: MALME-3M melanoma
[58] = tested on: U251 CNS

## C=C(c1ccc(C(=O)N(C)c2ccccc2N)cc1)C(C)N1C(=O)[C@H]2CCCN2C(=O)c2ccccc21 (stereo partly specified)
[1]
  GI50: 80.6 µM
  TGI: > 100 µM
[2]
  GI50: 16.1 µM
  TGI: 80.2 µM
[3]
  GI50: 38.3 µM
  TGI: > 100 µM
[4]
  GI50: 24 µM
  TGI: > 100 µM
[5]
  GI50: 42.3 µM
  TGI: > 100 µM
[6]
  GI50: 31.2 µM
  TGI: > 100 µM
[7]
  GI50: 61.6 µM
  TGI: > 100 µM
[8]
  GI50: 20.2 µM
  TGI: > 100 µM
[9]
  GI50: 18.7 µM
  TGI: 74.9 µM
[10]
  GI50: 69.5 µM
  TGI: > 100 µM
[11]
  GI50: 26.2 µM
  TGI: > 100 µM
[12]
  GI50: 25 µM
  TGI: > 100 µM
[13]
  GI50: > 100 µM
  TGI: > 100 µM
[14]
  GI50: > 100 µM
  TGI: > 100 µM
[15]
  GI50: 19.3 µM
  TGI: > 100 µM
[16]
  GI50: 27.4 µM
  TGI: > 100 µM
[17]
  GI50: 45.5 µM
  TGI: > 100 µM
[18]
  GI50: 32.8 µM
  TGI: > 100 µM
[19]
  GI50: 26.4 µM
  TGI: > 100 µM
[20]
  GI50: 46.5 µM
  TGI: > 100 µM
[21]
  GI50: > 100000 nM
  TGI: > 100 µM
[22]
  GI50: 33.3 µM
  TGI: > 100 µM
[23]
  GI50: 17.1 µM
  TGI: 77.5 µM
[24]
  GI50: 16.5 µM
  TGI: 90.5 µM
[25]
  GI50: 57.6 µM
  TGI: > 100 µM
[26]
  GI50: 43.7 µM
  TGI: > 100 µM
[27]
  GI50: 34.7 µM
  TGI: > 100 µM
[28]
  GI50: 31.2 µM
  TGI: > 100 µM
[29]
  GI50: 99.5 µM
  TGI: > 100 µM
[30]
  GI50: 23.6 µM
  TGI: > 100 µM
[31]
  GI50: 34.2 µM
  TGI: > 100 µM
[32]
  GI50: 58.5 µM
  TGI: > 100 µM
[33]
  GI50: > 100000 nM
  TGI: > 100 µM
[34]
  GI50: 37.2 µM
  TGI: > 100 µM
[35]
  GI50: 36.5 µM
  TGI: > 100 µM
[36]
  GI50: 20.2 µM
  TGI: 80.2 µM
[37]
  GI50: 24 µM
  TGI: > 100 µM
[38]
  GI50: 6.72 µM
  TGI: 84.2 µM
[39]
  GI50: 53.4 µM
  TGI: > 100 µM
[40]
  GI50: 19.8 µM
  TGI: > 100 µM
[41]
  GI50: 2910 nM
  TGI: 41.2 µM
[42]
  GI50: 11.5 µM
  TGI: > 100 µM
[43]
  GI50: 68.8 µM
  TGI: > 100 µM
[44]
  GI50: 23.2 µM
  TGI: > 100000 nM
[45]
  GI50: 32.1 µM
  TGI: > 100 µM
[46]
  GI50: 82 µM
  TGI: > 100 µM
[47]
  GI50: 7.52 µM
  TGI: 37.7 µM
[48]
  GI50: > 100 µM
  TGI: > 100 µM
[49]
  GI50: 53.1 µM
  TGI: > 100 µM
[50]
  GI50: 38.1 µM
  TGI: > 100 µM
[51]
  GI50: 63.4 µM
  TGI: > 100 µM
[52]
  GI50: 24.8 µM
  TGI: 97.9 µM
[53]
  GI50: 19.2 µM
  TGI: 67.5 µM
[54]
  GI50: 50.1 µM
  TGI: > 100 µM
[55]
  GI50: 17.7 µM
  TGI: > 100 µM
[56]
  GI50: 31.6 µM
  TGI: > 100 µM

## O=C(N/N=C/c1ccc([N+](=O)[O-])cc1)c1ccc2nc(-c3ccc(Cl)cc3)[nH]c2c1
[1]
  GI50: 3.2 µM
  TGI: 21.2 µM
[2]
  GI50: 3.02 µM
  TGI: > 100 µM
[3]
  GI50: 3.57 µM
  TGI: 12.2 µM
[5]
  GI50: 2.73 µM
  TGI: 10.1 µM
[6]
  GI50: 2.11 µM
  TGI: 4.78 µM
[57]
  GI50: 1480 nM
  TGI: 5 µM
[7]
  GI50: 1.85 µM
  TGI: 11.5 µM
[8]
  GI50: 12.6 µM
  TGI: > 100 µM
[9]
  GI50: 0.566 µM
  TGI: 4.87 µM
[10]
  GI50: 3.04 µM
  TGI: 11.4 µM
[11]
  GI50: 0.42 µM
  TGI: 15.3 µM
[12]
  GI50: 4.97 µM
  TGI: 24.3 µM
[13]
  GI50: 3.43 µM
  TGI: 13 µM
[14]
  GI50: 7.48 µM
  TGI: 32.4 µM
[15]
  GI50: 0.499 µM
  TGI: 8.44 µM
[16]
  GI50: 0.591 µM
  TGI: 17.7 µM
[17]
  GI50: 8.99 µM
  TGI: 42.3 µM
[18]
  GI50: 3.49 µM
  TGI: 16.1 µM
[19]
  GI50: 3.14 µM
  TGI: 18.1 µM
[20]
  GI50: 2.6 µM
  TGI: 13 µM
[21]
  GI50: 2840 nM
  TGI: 9.71 µM
[58]
  GI50: 2910 nM
  TGI: 10.8 µM
[22]
  GI50: 3.99 µM
  TGI: 21.4 µM
[23]
  GI50: 2.78 µM
  TGI: 18 µM
[24]
  GI50: 2.29 µM
  TGI: 7.21 µM
[25]
  GI50: 3.92 µM
  TGI: 15.7 µM
[26]
  GI50: 2.89 µM
  TGI: 13.7 µM
[27]
  GI50: 3.37 µM
  TGI: 15.4 µM
[28]
  GI50: 2.6 µM
  TGI: 10.3 µM
[29]
  GI50: 5.1 µM
  TGI: 21.9 µM
[30]
  GI50: 1.48 µM
  TGI: 4.81 µM
[31]
  GI50: 1.34 µM
  TGI: 3.22 µM
[32]
  GI50: 3.75 µM
  TGI: 13.9 µM
[33]
  GI50: 2030 nM
  TGI: 7.07 µM
[34]
  GI50: 0.985 µM
  TGI: 7.52 µM
[35]
  GI50: 4.36 µM
  TGI: 31.9 µM
[36]
  GI50: 0.797 µM
  TGI: 5.73 µM
[37]
  GI50: 3.51 µM
  TGI: 14.9 µM
[38]
  GI50: 11.4 µM
  TGI: 39.6 µM
[39]
  GI50: 6.05 µM
  TGI: 38.3 µM
[40]
  GI50: 2.25 µM
  TGI: 6.9 µM
[41]
  GI50: 2750 nM
  TGI: 8.64 µM
[42]
  GI50: 4.43 µM
  TGI: 37.8 µM
[43]
  GI50: 3.98 µM
  TGI: 24.1 µM
[44]
  GI50: 0.582 µM
  TGI: 2850 nM
[45]
  GI50: 2.1 µM
  TGI: 4.49 µM
[46]
  GI50: 3.25 µM
  TGI: 8.23 µM
[47]
  GI50: 0.461 µM
  TGI: 2.41 µM
[48]
  GI50: 3.4 µM
  TGI: 13.1 µM
[49]
  GI50: 3.58 µM
  TGI: 24.4 µM
[50]
  GI50: 3.44 µM
  TGI: 10.8 µM
[51]
  GI50: 5.03 µM
  TGI: 31.2 µM
[52]
  GI50: 0.421 µM
  TGI: 3.85 µM
[53]
  GI50: 2.39 µM
  TGI: 7.75 µM
[54]
  GI50: 2.73 µM
  TGI: 9.13 µM
[55]
  GI50: 3.05 µM
  TGI: 11.7 µM
[56]
  GI50: 6.42 µM
  TGI: 30.8 µM
